# Reference: patent US10653667B2, “Drug for preventing, treating or preventing metastasis of giant cell tumor that occurs in bone or soft parts, chondrosarcoma, or osteosarcoma, local injection for arterial embolization, and artificial bone” (NIPPON CHEMIPHAR CO., LTD, priority 2013, dated 2020)
# Columns and labels:
# [1] = system: GCTB cultured cells of the case 1; test: Tunel assay and caspase 3 staining of GCTB cultured cells (apoptosis); assay type: cell-based, human; conditions: zaltoprofen 100 and 200 μM; 8 hours and 24 hours
# Description: Further, the aforementioned GCTB cultured cells of the case 1 mentioned above were cultured on chamber cover slide glass, and zaltoprofen was added at different concentrations (100, and 200 μM) 24 hours afterward. Then, 8 hours and 24 hours afterward, the cells were fixed with 4% paraformaldehyde, staining with caspase 3 and Tunel assay were performed, and presence or absence of apoptosis was analyzed. In the Tunel assay, fragmented DNAs produced in the process of apoptosis were detected by the TdT-mediated dUTP nick end labeling method (TUNEL). Observation was performed with a fluorescence microscope (BZ-9000) of Keyence, and positive images for each concentration were quantitatively observed (FIGS. 2 to 5).
# [2] = system: GCTB cultured cells of the case 1; test: Fat cell differentiation of GCTB cultured cells (HCS Lipid TOX Green Neutral Lipid Stain); assay type: cell-based, human; conditions: zaltoprofen 10, 50, 100 μM; fat cell differentiation-inducing medium 7 to 14 days
# Description: (§1) It has been reported that PPARγ is a transcription factor indispensable for fat cell differentiation. Therefore, the GCTB cultured cells of the aforementioned case 1 were cultured on chamber cover slide glass, and when they reached confluent, zaltoprofen was added to the cells at various concentrations (10, 50, and 100 μM). From 24 hours thereafter, the cells were cultured in a fat cell differentiation-inducing medium (STREMPRO Adipogenesis Differentiation Kit, Invitrogen) for 7 to 14 days, and differentiation into fat cells was analyzed with HCS Lipid TOX Green Neutral Lipid Stain (Invitrogen) (FIGS. 8 and 9).
# [3] = system: GCTB cultured cells (case 1, case 2); test: Cell proliferation of GCTB cultured cells in the presence or absence of PPARγ siRNA; assay type: cell-based, human; conditions: 200 μM zaltoprofen or 60 μM troglitazone; 72 hours
# [4] = system: PPARγ expression in cells of pigmented villonodular synovitis (PVNS); test: PPARγ immunostaining of PVNS cells; assay type: cell-based, human; conditions: zaltoprofen 400 μM or troglitazone 200 μM
# [5] = system: cells of giant cell tumor of tendon sheath (GCTT); test: Fat cell differentiation of GCTT cells (HCS LipidTOX Green); assay type: cell-based, human; conditions: zaltoprofen 400 μM, compared with control
# Description: as §1
# It has been reported that PPARγ is a transcription factor indispensable for fat cell differentiation. Therefore, in the same manner as that of Example 3, zaltoprofen was added at a concentration of 400 μM to the cells of giant cell tumor of tendon sheath (GCTT) or cells of pigmented villonodular synovitis (PVNS), and differentiation into fat cells was analyzed (FIGS. 30 and 31). As a result, it was successfully confirmed that the positive images obtained with HCS LipidTOX Green increased in the zaltoprofen-added cells compared with the control.
# [6] = system: SW1353 cells; test: Proliferation of SW1353 cells cultured beforehand with or without GW9662; assay type: cell-based, human
# Description: Cells of the human chondrosarcoma cell line, SW1353, were cultured in the same manner as that of Example 1 until they became sub-confluent, then, GW9662, which is an irreversible antagonist of PPARγ, was added to the cells at a final concentration of 1 μM, and the cells were cultured for 60 minutes. Then, zaltoprofen was added to the cells at various concentrations of 100, 200, 300, and 400 μM, color development was performed with Cell. Counting Kit-8 (CCK-8, Dojindo) 72 hours thereafter, absorbance was measured at 450 nm further 3 hours thereafter, and the result was compared with the absorbance observed with adding only DMSO not dissolving GW9662 (FIG. 68).
# [7] = system: HOS cells; test: Suppression of proliferation of human bone sarcoma cell line HOS (CCK-8); assay type: cell-based; conditions: 72 hours
# Description: Cells of the human bone sarcoma cell line, HOS (purchased from American Type Culture Collection), were cultured in the same manner as that of Example 1 until they became sub-confluent. Zaltoprofen was added to the cells at concentrations of 25, 50, 100, 200 and 400 μM, color development was performed with Cell Counting Kit-8 (CCK-8, Dojindo) 72 hours thereafter, and absorbance was measured at 450 nm further 3 hours thereafter (FIG. 72).
# [8] = system: SW1353 cells; test: Cell migration of human chondrosarcoma cell line SW1353; assay type: cell-based; conditions: 72 hours
# Description: The analysis of cell migration was performed by using a 6-well plate of TPP according to the method described in Takeuchi A, et al., Cancer Science, 104:740-749, 2013 (Low molecular weight heparin suppresses receptor for advanced glycation end products-mediated expression of malignant phenotype in human fibrosarcoma cells). Cells of the human chondrosarcoma cell line, SW1353, were cultured in the same manner as that of Example 1 until they became sub-confluent, and the cells were delaminated in a width of 1 mm using a micropipette tip (200 μl). […] Then, area of the cells migrated to the region where the cells were delaminated was measured by using Image J software (http://rsb.info.nih.gov/ij/index.html) (FIGS. 73 and 74).
# [9] = system: SW1353 cells; test: Cell invasion of SW1353 cells cultured beforehand with or without GW9662; assay type: cell-based, human
# Description: Cells of the human chondrosarcoma cell line, SW1353, were cultured in the same manner as that of Example 1 until they became sub-confluent, then, GW9662, which is an irreversible antagonist of PPARγ, was added to the cells at a final concentration of 1 μM, and the cells were cultured for 60 minutes. Then, zaltoprofen was added to the cells at various concentrations of 200, 300, and 400 μM, cell invasion was measured with Matrigel™ Invasion Chamber (BD Bioscience, catalog number 354480) 24 hours afterward, and the result was compared with the degree of cell invasion observed with addition of only DMSO not dissolving GW9662 (FIG. 78).
# [10] = system: GCTB cultured cells (case 1, case 2; GCT-1, GCT-2); conditions: GCTB derived from a patient; inventors' earlier reports; cited from earlier work
# [11] = system: GCTB cultured cells of the case 1; conditions: GCTB derived from a patient; inventors' earlier reports; cited from earlier work
# [12] = system: H-EMC-SS cells; conditions: inventors' earlier reports; cited from earlier work
# [13] = system: H-EMC-SS cells; conditions: inventors' earlier reports; cited from earlier work; remark: listed apart in the source
# [14] = system: synovial cells derived from rheumatism patients; conditions: cited from earlier work
smiles,measurement,setting,value
CC(C(=O)O)c1ccc2c(c1)CC(=O)c1ccccc1S2 (stereo not drawn) [zaltoprofen],Tunel-positive ratio,[1],concentration and administration time-dependent increases
same,caspase 3-positive ratio,[1],concentration and administration time-dependent increases
same,positive images obtained with HCS Lipid TOX Green Neutral Lipid Stain (differentiation into fat cells),[2],increased in a zaltoprofen concentration-dependent manner
same,cell proliferation-inhibiting effect in the PPARγ siRNA addition group,[3],significantly suppressed
same,expression of PPARγ (PPARγ-positive images),[4],expression of PPARγ was successfully observed
same,positive images obtained with HCS LipidTOX Green (differentiation into fat cells),[5],increased
same,cell proliferation-suppressing action after preincubation with GW9662,"[6]; SW1353, GW9662 1 μM, 60 minutes beforehand",markedly reduced by GW9662
same,suppression of proliferation of SW1353 cells,"[6]; zaltoprofen 100, 200, 300, 400 μM, 72 hours",suppressed by zaltoprofen in a concentration-dependent manner
same,suppression of proliferation of HOS cells,[7]; 400 μM zaltoprofen,about 60%
same,suppression of cell proliferation of HOS cells,"[7]; at 100 μM, 200 μM and 400 μM, concentration-dependent (25-400 μM tested)",suppressed
same,suppression of cell migration of SW1353 cells,[8]; 400 μM zaltoprofen,about 40%
same,suppression of cell migration of SW1353 cells,"[8]; all set concentrations, concentration-dependent",suppressed the cell migration
same,suppression of cell invasion of SW1353 cells,"[9]; 400 μM zaltoprofen, 24 hours, without GW9662",higher than 80%
same,suppression of the cell invasion after preincubation with GW9662,"[9]; 400 zaltoprofen, GW9662 1 μM",substantially eliminated by GW9662
same,suppression of proliferation of cells of giant cell tumor of bone,[10],suppressed proliferation
same,differentiation of the cells into fat cells,[11],induced differentiation of the cells into fat cells
same,suppression of proliferation of H-EMC-SS cells,[12],suppress proliferation
same,apoptosis in H-EMC-SS cells,[13],induced apoptosis
same,activation of PPARγ,[14],activated PPARγ
same,apoptosis,[14],caused apoptosis
same,suppression of proliferation of the cells,[14],suppress proliferation
